# Peptide text beside a SMILES is read from it. * marks the point of attachment. Biotin = O=C1N[C@H]2[C@H](CS[C@H]2CCCCC(=O)*)N1
# Assays:
# [1] = system: human RBC; assay: Hemolysis of RBC; type: cell-based
# Procedure: Varying amounts of peptide were incubated with the washed RBC for one hour at room temperature. Intact cells were pelleted by gentle centrifugation, and hemolysis of each sample was determined by absorption measurement at 450 nm. A positive control sample consisted of RBC lysed by the addition of 0.1% Triton, for which hemolysis was also determined by absorption measurement at 450 nm. Percentages of lysed RBC incubated with peptide were then calculated by the ratio of absorbances at 450 nm for the sample relative to the absorbance at 450 nm of the positive control sample. The MHC10 value was calculated as the minimum peptide concentration to induce 10% cell lysis.
# [2] = Cytotoxicity against Jurkat cells (CellTiter Blue); type: cell-based, human; conditions: human
# Procedure: (§1) The cytotoxicities of selected peptides against human T-lymphocytes, in particular Jurkat cells, was determined by growing 100 uL Jurkat cells in RPMI (approx. 5×10^5 cells/ml density) overnight at 37° C. under 5% CO2 atmosphere, in microtiter plate wells, in the presence and absence of peptides. Control reactions either lacked peptide (negative cytotoxicity control), or contained a buffer to completely lyse Jurkat cells (positive cytotoxicity control). The viabilities of cells were then determined by addition of 20 uL CellTiter Blue dye (Promega) to each well, and incubation of cells for a further 3 hrs at 37° C. Fluorescence values were measured for 1 sec at 540 nm/615 nm, and expressed relative to fluorescence values for negative and positive cytotoxicity control samples. Comparison with a fully lysed control allowed the calculation of a percentage killing for each peptide concentration. The MCC10 value was calculated as the minimum peptide concentration required to induce 10% cytotoxicity.
# [3] = system: Jurkat cells; assay: Cytotoxicity against Jurkat cells (CellTiter Blue); type: cell-based, human
# Procedure: as §1
# [4] = system: A. baumannii; type: cell-based
# Outline: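 Laboratory strains and 50 clinical isolates of A. baumannii were tested by CLSI broth microdilution, with serially diluted peptide (0.1-64 μg) and about 1×10^5 C.F.U. per well, incubated aerobically overnight at 35±2° C. MIC was read visually. MBC came from subculturing clear wells, as ≥99.9% inoculum reduction.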
Structure (SMILES),MIC (μM) for non-amidated Peptide [4],MHC10 [1],cytotoxicity at 12.5 μM [2],cytotoxicity at 25 μM [2],cytotoxicity at 50 μM [2],MCC10 [3]
CC(C)C[C@H](NC(=O)[C@H](Cc1ccccc1)NC(=O)CNC(=O)[C@H](CO)NC(=O)[C@@H]1CCCN1C(=O)[C@H](Cc1c[nH]c2ccccc12)NC(=O)[C@@H](NC(=O)[C@@H]1CCCN1C(=O)[C@H](CCCNC(=N)N)NC(=O)[C@@H](NC(=O)[C@H](C)NC(=O)[C@H](CS)NC(=O)[C@H](CCCNC(=N)N)NC(=O)[C@H](CO)NC(=O)[C@H](CO)NC(=O)[C@H](C)NC(=O)[C@H](C)NC(=O)[C@H](CCCNC(=N)N)NC(=O)[C@H](CO)NC(=O)[C@H](CO)NC(=O)[C@H](Cc1c[nH]cn1)NC(=O)[C@@H]1CCCN1C(=O)CCCC[C@@H]1SC[C@@H]2NC(=O)N[C@@H]21)C(C)C)C(C)C)C(=O)N[C@@H](CCCNC(=N)N)C(=O)O [Ac327] (Biotin-PHSSRAASSRCAVRPVWPSGFLR-OH),20 µM,30 µM,20%,31%,1%,8 µM
CC(C)C[C@H](NC(=O)[C@H](CCC(N)=O)NC(=O)[C@H](CCCNC(=N)N)NC(=O)[C@H](Cc1ccccc1)NC(=O)[C@H](Cc1ccc(O)cc1)NC(=O)[C@H](CC(C)C)NC(=O)[C@H](Cc1c[nH]c2ccccc12)NC(=O)[C@H](Cc1ccccc1)NC(=O)[C@H](CCCNC(=N)N)NC(=O)[C@H](CCCNC(=N)N)NC(=O)[C@H](CO)NC(=O)[C@H](CC(=O)O)NC(=O)[C@H](CC(C)C)NC(=O)[C@H](Cc1c[nH]c2ccccc12)NC(=O)[C@H](Cc1ccccc1)NC(=O)[C@H](CC(=O)O)NC(=O)[C@H](CCCNC(=N)N)NC(=O)[C@H](CCCNC(=N)N)NC(=O)[C@H](C)NC(=O)[C@H](CCC(N)=O)NC(=O)[C@H](CO)NC(=O)[C@H](CCCNC(=N)N)NC(=O)CCCC[C@@H]1SC[C@@H]2NC(=O)N[C@@H]21)C(=O)N[C@@H](Cc1ccccc1)C(=O)O [Ac474] (Biotin-RSQARRDFWLDSRRFWLYFRQLF-OH),25 µM,5 µM,13%,20%,81%,10 µM
CC[C@H](C)[C@H](NC(=O)[C@@H]1CCCN1C(=O)CCCC[C@@H]1SC[C@@H]2NC(=O)N[C@@H]21)C(=O)N1CCC[C@H]1C(=O)N[C@@H](Cc1ccccc1)C(=O)N[C@@H](Cc1ccccc1)C(=O)N[C@@H](CC(N)=O)C(=O)N[C@@H](CCCNC(=N)N)C(=O)N[C@H](C(=O)NCC(=O)N[C@@H](Cc1ccccc1)C(=O)N[C@@H](Cc1ccccc1)C(=O)N[C@@H](CS)C(=O)N[C@@H](CC(C)C)C(=O)N1CCC[C@H]1C(=O)N[C@@H](CCCCN)C(=O)N[C@@H](CC(N)=O)C(=O)N[C@@H](CC(C)C)C(=O)N[C@@H](CCCCN)C(=O)N[C@@H](CCCNC(=N)N)C(=O)N[C@@H](CO)C(=O)N[C@@H](CCCCN)C(=O)N[C@@H](Cc1ccccc1)C(=O)N[C@@H](CS)C(=O)O)[C@@H](C)O [Ac322] (Biotin-PIPFFNRTGFFCLPKNLKRSKFC-OH; N-terminus and C-terminus assumed),5 µM,25 µM,0%,0%,59%,30 µM
CC(C)C[C@H](NC(=O)[C@H](Cc1ccccc1)NC(=O)CNC(=O)[C@H](CO)NC(=O)[C@@H]1CCCN1C(=O)[C@H](Cc1c[nH]c2ccccc12)NC(=O)[C@@H](NC(=O)[C@@H]1CCCN1C(=O)[C@H](CCCNC(=N)N)NC(=O)[C@@H](NC(=O)[C@H](C)NC(=O)[C@H](CS)NC(=O)[C@H](CCCNC(=N)N)NC(=O)[C@H](CO)NC(=O)[C@H](CO)NC(=O)CCCC[C@@H]1SC[C@@H]2NC(=O)N[C@@H]21)C(C)C)C(C)C)C(=O)N[C@@H](CCCNC(=N)N)C(=O)N[C@@H](CCCNC(=N)N)C(=O)N[C@@H](CC(C)C)C(=O)N[C@@H](CO)C(=O)N[C@@H](CC(=O)O)C(=O)N[C@@H](CCCNC(=N)N)C(=O)N[C@@H](CS)C(=O)N[C@@H](CS)C(=O)O [Ac328] (Biotin-SSRCAVRPVWPSGFLRRLSDRCC-OH; N-terminus and C-terminus assumed),12.5 µM,20 µM,1%,17%,32%,20 µM

# Continued, in another order:
MIC (μM) for non-amidated Peptide [4],Structure (SMILES),MHC10 [1],cytotoxicity at 12.5 μM [2],cytotoxicity at 25 μM [2],cytotoxicity at 50 μM [2],MCC10 [3]
5 µM,CC[C@H](C)[C@H](NC(=O)[C@H](Cc1ccccc1)NC(=O)[C@H](CC(C)C)NC(=O)[C@H](CCC(N)=O)NC(=O)[C@H](CCCNC(=N)N)NC(=O)[C@H](Cc1ccccc1)NC(=O)[C@H](Cc1ccc(O)cc1)NC(=O)[C@H](CC(C)C)NC(=O)[C@H](Cc1c[nH]c2ccccc12)NC(=O)[C@H](Cc1ccccc1)NC(=O)[C@H](CCCNC(=N)N)NC(=O)[C@H](CCCNC(=N)N)NC(=O)[C@H](CO)NC(=O)[C@H](CC(=O)O)NC(=O)CCCC[C@@H]1SC[C@@H]2NC(=O)N[C@@H]21)C(=O)N[C@@H](Cc1c[nH]cn1)C(=O)N[C@@H](CC(N)=O)C(=O)N1CCC[C@H]1C(=O)N[C@@H](CCCCN)C(=O)N[C@H](C(=O)N1CCC[C@H]1C(=O)N[C@H](C(=O)N[C@H](C(=O)N1CCC[C@H]1C(=O)O)[C@@H](C)O)[C@@H](C)CC)[C@@H](C)O [Ac476] (Biotin-DSRRFWLYFRQLFIHNPKTPITP-OH),50 µM,12%,18%,44%,10 µM
20 µM,CC(C)C[C@H](NC(=O)[C@H](CC(N)=O)NC(=O)[C@H](CCCCN)NC(=O)[C@@H]1CCCN1C(=O)[C@H](CC(C)C)NC(=O)[C@H](CS)NC(=O)[C@H](Cc1ccccc1)NC(=O)[C@H](Cc1ccccc1)NC(=O)CNC(=O)[C@@H](NC(=O)[C@H](CCCNC(=N)N)NC(=O)CCCC[C@@H]1SC[C@@H]2NC(=O)N[C@@H]21)[C@@H](C)O)C(=O)N[C@@H](CCCCN)C(=O)N[C@@H](CCCNC(=N)N)C(=O)N[C@@H](CO)C(=O)N[C@@H](CCCCN)C(=O)N[C@@H](Cc1ccccc1)C(=O)N[C@@H](CS)C(=O)N[C@@H](C)C(=O)N[C@@H](Cc1ccccc1)C(=O)N[C@@H](CC(C)C)C(=O)N[C@@H](CC(=O)O)C(=O)N1CCC[C@H]1C(=O)N[C@H](C(=O)O)[C@@H](C)O [Ac323] (Biotin-RTGFFCLPKNLKRSKFCAFLDPT-OH; N-terminus and C-terminus assumed),30 µM,9%,31%,49%,13 µM
12.5 µM,CC[C@H](C)[C@H](NC(=O)[C@H](Cc1c[nH]c2ccccc12)NC(=O)[C@H](CCCNC(=N)N)NC(=O)[C@H](CO)NC(=O)[C@H](CCCNC(=N)N)NC(=O)[C@H](CCCNC(=N)N)NC(=O)[C@H](CO)NC(=O)[C@H](CCCNC(=N)N)NC(=O)[C@H](CCCNC(=N)N)NC(=O)[C@H](Cc1ccc(O)cc1)NC(=O)CNC(=O)CCCC[C@@H]1SC[C@@H]2NC(=O)N[C@@H]21)C(=O)N[C@@H](CS)C(=O)N[C@@H](CO)C(=O)N[C@@H](CCSC)C(=O)N[C@@H](C)C(=O)N[C@@H](CCCNC(=N)N)C(=O)N[C@@H](CCCNC(=N)N)C(=O)N[C@@H](CO)C(=O)N[C@@H](CCCNC(=N)N)C(=O)N[C@@H](CCCNC(=N)N)C(=O)N[C@@H](CCCNC(=N)N)C(=O)N[C@@H](CCCNC(=N)N)C(=O)N1CCC[C@H]1C(=O)O [Ac389] (Biotin-GYRRSRRSRWICSMARRSRRRRP-OH),50 µM,0%,34%,95%,15 µM
10 µM,CC[C@H](C)[C@H](NC(=O)[C@H](CCC(N)=O)NC(=O)[C@H](CCCNC(=N)N)NC(=O)[C@@H](NC(=O)[C@@H](NC(=O)[C@@H]1CCCN1C(=O)[C@@H]1CCCN1C(=O)[C@H](CCSC)NC(=O)[C@H](CCCNC(=N)N)NC(=O)[C@H](CC(N)=O)NC(=O)[C@@H](NC(=O)CNC(=O)[C@H](Cc1c[nH]c2ccccc12)NC(=O)CCCC[C@@H]1SC[C@@H]2NC(=O)N[C@@H]21)C(C)C)C(C)C)C(C)C)C(=O)N[C@@H](CC(C)C)C(=O)N[C@@H](CCCNC(=N)N)C(=O)N[C@@H](CO)C(=O)N[C@@H](CCC(=O)O)C(=O)N[C@@H](Cc1c[nH]c2ccccc12)C(=O)N[C@@H](CCCNC(=N)N)C(=O)N[C@@H](CC(N)=O)C(=O)N[C@@H](Cc1c[nH]c2ccccc12)C(=O)N[C@@H](CCCNC(=N)N)C(=O)N[C@@H](CCCCN)C(=O)O [Ac436] (Biotin-WGVNRMPPVVRQILRSEWRNWRK-OH),75 µM,6%,10%,32%,25 µM
